For 12 compounds, TGI results are on record in PubChem BioAssay (NCI).

The structures appear in SMILES notation.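 Briefly, cells in 96-well plates were exposed to five compound concentrations for 48 h, and endpoints were estimated by linear interpolation. TGI is the concentration that stops growth completely.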

Some test systems named below: U251 CNS; OVCAR-3 ovarian; BT-549 breast; MDA-N; DU-145 prostate; NCI-H460 lung; RXF 393 renal; COLO 205 colon; HCT-116 colon; 786-0 renal; M14 melanoma.
Common to all, as to experiment: growth of human tumour cells (NCI), 48 h

As for `CCOC(=O)[C@@H]1C[C@@H]1c1ccc(O)c(O)c1`, the TGI was greater than 100 µM with U251 CNS; 67.8 µM with OVCAR-3 ovarian; 75.9 µM in the test with BT-549 breast; 35.1 µM with MDA-N; greater than 100 µM in the test with DU-145 prostate; greater than 100 µM in the test with NCI-H460 lung. For the same compound, the TGI with RXF 393 renal was 54 µM; in the test with COLO 205 colon, greater than 100 µM; in the test with HCT-116 colon, 32.7 µM; with 786-0 renal, 34.7 µM; with M14 melanoma, 25.2 µM.
Regarding `OC1CSCCSCCCSCCSC1`, the TGI with U251 CNS, with OVCAR-3 ovarian, in the test with BT-549 breast, in the test with MDA-N, with DU-145 prostate and in the test with NCI-H460 lung was greater than 100 µM throughout. Moreover, the TGI in the test with RXF 393 renal, in the test on COLO 205 colon, in the test with HCT-116 colon, in the test with 786-0 renal and in the test on M14 melanoma was greater than 100 µM in each case.
`CC1=NNC(=O)[C@H]2[C@H]1CCC1[C@@H]2CC[C@]2(C)[C@@H](O)CC[C@@H]12` (some centres not stated): the TGI with U251 CNS, in the test with OVCAR-3 ovarian, in the test with BT-549 breast, in the test on MDA-N, with DU-145 prostate and in the test with NCI-H460 lung was greater than 100 µM throughout. Further, the TGI in the test with RXF 393 renal, in the test with COLO 205 colon, with HCT-116 colon, with 786-0 renal and in the test on M14 melanoma was greater than 100 µM throughout.
In the case of `CCCCOc1ccc(S(=O)(=O)/N=C(\N)Nc2ccc(Cl)cc2)cc1`, the TGI in the test with U251 CNS worked out at 28 µM; in the test on OVCAR-3 ovarian it was 31.8 µM; in the test on BT-549 breast, 32.5 µM; with MDA-N, 30.4 µM; in the test on DU-145 prostate it was 34.3 µM; in the test on NCI-H460 lung, 31.5 µM. The TGI with RXF 393 renal was 32.3 µM; in the test with COLO 205 colon, greater than 100 µM; with HCT-116 colon, 30.3 µM; in the test on 786-0 renal, 30.9 µM; with M14 melanoma, 38 µM.
For `CN(CCCNC(=O)c1c2ccc3ccccc3c2nn1C)CCCNC(=O)c1c2ccc3ccccc3c2nn1C`, the TGI stood at 22.1 µM in the test on U251 CNS; 37.3 µM with OVCAR-3 ovarian; 24 µM in the test with BT-549 breast; 8.91 µM in the test with MDA-N; 44.4 µM with DU-145 prostate; 18.4 µM with NCI-H460 lung. Also, the TGI in the test on RXF 393 renal is 20 µM; in the test with COLO 205 colon, 3.54 µM; in the test with HCT-116 colon, 28 µM; in the test with 786-0 renal it was 25.7 µM; in the test with M14 melanoma, 3.99 µM.
Take `COC(=O)[C@]1(C)[C@H]2C[C@H]3O[C@H]4[C@H](O)[C@@H](O)OC(CC(O)C(C5=CC(=O)OC5)C(C5=CC(=O)OC5)C(O)CC56CCCCC7[C@@H](C)[C@H](C[C@H]8[C@](C)(C(=O)OC)[C@H](O)CC[C@]78C)O[C@H]([C@@H](O)[C@H](O)O5)[C@H]6O)(CCCCC([C@@H]3C)[C@]2(C)CC[C@@H]1O)[C@H]4O` (some centres not stated): the TGI in the test on U251 CNS is 1.09 µM; in the test on OVCAR-3 ovarian, 1.05 µM; in the test on BT-549 breast it was 0.305 µM; in the test on MDA-N, 0.786 µM; in the test on DU-145 prostate, 0.219 µM; with NCI-H460 lung, 0.014 µM. Moreover, the TGI in the test with RXF 393 renal was determined as 0.264 µM; in the test on COLO 205 colon it was 1.33 µM; with HCT-116 colon, 0.53 µM; in the test with 786-0 renal, 0.225 µM; in the test with M14 melanoma, 1.16 µM.
In the case of `COc1cccc(/C=C2/S/C(=N/Nc3nc(C)c(C(C)=O)s3)NC2=O)c1O`, the TGI in the test with U251 CNS is 44 µM; in the test with OVCAR-3 ovarian, 60.3 µM; in the test on BT-549 breast it was 97 µM; in the test with MDA-N it was greater than 100 µM; with DU-145 prostate, greater than 100 µM; with NCI-H460 lung it was greater than 100 µM. Further, the TGI was 93.2 µM in the test with RXF 393 renal; 64.9 µM with COLO 205 colon; greater than 100 µM with HCT-116 colon; greater than 100 µM with 786-0 renal; greater than 100 µM in the test with M14 melanoma.
Regarding `CON(C)C(=O)C(C)NC(=O)OC(C)(C)C` (configuration not stated), the TGI with U251 CNS, in the test with OVCAR-3 ovarian, in the test with BT-549 breast, in the test with MDA-N, in the test with DU-145 prostate and in the test with NCI-H460 lung was greater than 100 µM throughout. The TGI in the test on RXF 393 renal, in the test with COLO 205 colon, in the test with HCT-116 colon, in the test with 786-0 renal and in the test with M14 melanoma was greater than 100 µM in each case.
On to `COc1ccc2c(C(=O)c3c(C)n(CCN4CCOCC4)c4ccccc34)cccc2c1`, for which the TGI in the test on U251 CNS was 52.2 µM; in the test with OVCAR-3 ovarian, 29.6 µM; in the test with BT-549 breast, 98.1 µM; with MDA-N, greater than 100 µM; in the test with DU-145 prostate, greater than 100 µM; in the test on NCI-H460 lung, greater than 100 µM. Moreover, the TGI in the test on RXF 393 renal is 91.2 µM; with COLO 205 colon, 43.4 µM; in the test on HCT-116 colon it was greater than 100 µM; in the test on 786-0 renal, greater than 100 µM; with M14 melanoma it was 87.7 µM.
As for `CCOP(=O)(/C=C/n1cnc2c(=O)n(C(C)=O)c(N)nc21)OCC`, the TGI with U251 CNS, in the test on OVCAR-3 ovarian, in the test on BT-549 breast, with MDA-N, with DU-145 prostate and in the test on NCI-H460 lung was greater than 100 µM in each case. Moreover, the TGI in the test on RXF 393 renal, with COLO 205 colon, in the test with HCT-116 colon, with 786-0 renal and with M14 melanoma was greater than 100 µM throughout.
With `COCCOCCOCCC(=O)NC1CC2CCC1(C)C2(C)C` (configuration not stated), the TGI in the test on U251 CNS, in the test on OVCAR-3 ovarian, in the test on BT-549 breast, in the test on MDA-N, in the test with DU-145 prostate and with NCI-H460 lung was greater than 100 µM each time. The TGI in the test with RXF 393 renal, with COLO 205 colon, with HCT-116 colon, with 786-0 renal and with M14 melanoma was greater than 100 µM in each case.
`C/C(=N\Nc1nc2ccccc2n1C)c1ccc2ccccc2n1`: the TGI is greater than 43.6 µM in the test with U251 CNS; 0.213 µM in the test on OVCAR-3 ovarian; greater than 59.6 µM in the test with BT-549 breast; 37.7 µM with MDA-N; 14.5 µM in the test on DU-145 prostate; 32.1 µM in the test with NCI-H460 lung. For the same compound, the TGI in the test with RXF 393 renal is 29.3 µM; in the test on COLO 205 colon, greater than 100 µM; with HCT-116 colon, 7.03 µM; with 786-0 renal it was 11.5 µM; in the test on M14 melanoma, 4.91 µM.
